In ChEMBL document CHEMBL1201862, “PubChem BioAssay data set” (2004):
The source made the active and inactive calls.

Assays:
[1] = target: Mannose-6-phosphate isomerase (Homo sapiens, UniProt P34949); test: MPI inhibition at elevated mannose 6-phosphate – biochemical, fluorescence intensity, high mannose 6-phosphate, primary screen (AID 1220)
[2] = Trypanosoma cruzi growth suppression in host cells – NIH3T3 host cells, beta-gal luminescence, confirmation (AID 2044); type: functional, cell-based;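 note: intracellular parasites grown in NIH/3T3 mouse fibroblasts as host cells; luminescent beta-galactosidase reporter signal from transgenic T. cruzi replicating inside host cells; inhibitors lower the luminescence signal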
[3] = Luminescence Cell-Based Secondary HTS screen to identify cytotoxic compounds of NIH3T3 cells. [Related pubchem assays: 1885, 1968 ]; type: functional
[4] = NIH3T3 cell viability loss – ATP luminescence, mouse fibroblasts, counter-screen, dose response (AID 2010); type: functional, cell-based;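 note: cells exposed to compound for about 90 hours before reading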
[5] = viability inhibitors of stage V gametocytes – luminescence, dose response (AID 1117278); type: functional, cell-based;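 note: gametocytes exposed to compound for 24 hours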
[6] = viability loss in human Jurkat cells – cell-based, luminescence, cytotoxicity control for P. falciparum gametocyte viability project, dose response (AID 1117277); type: functional;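 note: potency reflects loss of cellular ATP meaning fewer viable cells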
[7] = target: Solute carrier family 12 member 2/member 5 (Homo sapiens, UniProt P55011+Q9H2X9); test: KCC2 and NKCC1 inhibition by rubidium flux, cell-based, NKCC1 counter-screen (AID 1734); type: functional, HEK293
Ephrin type-A receptor 4 = Ephrin type-A receptor 4 (Mus musculus, UniProt Q03137); test: EphA4 ligand-binding antagonists – biochemical, colorimetric, mouse EphA4, primary screen (AID 689); type: functional
Sequence of Ephrin type-A receptor 4 (Q03137 whole entry): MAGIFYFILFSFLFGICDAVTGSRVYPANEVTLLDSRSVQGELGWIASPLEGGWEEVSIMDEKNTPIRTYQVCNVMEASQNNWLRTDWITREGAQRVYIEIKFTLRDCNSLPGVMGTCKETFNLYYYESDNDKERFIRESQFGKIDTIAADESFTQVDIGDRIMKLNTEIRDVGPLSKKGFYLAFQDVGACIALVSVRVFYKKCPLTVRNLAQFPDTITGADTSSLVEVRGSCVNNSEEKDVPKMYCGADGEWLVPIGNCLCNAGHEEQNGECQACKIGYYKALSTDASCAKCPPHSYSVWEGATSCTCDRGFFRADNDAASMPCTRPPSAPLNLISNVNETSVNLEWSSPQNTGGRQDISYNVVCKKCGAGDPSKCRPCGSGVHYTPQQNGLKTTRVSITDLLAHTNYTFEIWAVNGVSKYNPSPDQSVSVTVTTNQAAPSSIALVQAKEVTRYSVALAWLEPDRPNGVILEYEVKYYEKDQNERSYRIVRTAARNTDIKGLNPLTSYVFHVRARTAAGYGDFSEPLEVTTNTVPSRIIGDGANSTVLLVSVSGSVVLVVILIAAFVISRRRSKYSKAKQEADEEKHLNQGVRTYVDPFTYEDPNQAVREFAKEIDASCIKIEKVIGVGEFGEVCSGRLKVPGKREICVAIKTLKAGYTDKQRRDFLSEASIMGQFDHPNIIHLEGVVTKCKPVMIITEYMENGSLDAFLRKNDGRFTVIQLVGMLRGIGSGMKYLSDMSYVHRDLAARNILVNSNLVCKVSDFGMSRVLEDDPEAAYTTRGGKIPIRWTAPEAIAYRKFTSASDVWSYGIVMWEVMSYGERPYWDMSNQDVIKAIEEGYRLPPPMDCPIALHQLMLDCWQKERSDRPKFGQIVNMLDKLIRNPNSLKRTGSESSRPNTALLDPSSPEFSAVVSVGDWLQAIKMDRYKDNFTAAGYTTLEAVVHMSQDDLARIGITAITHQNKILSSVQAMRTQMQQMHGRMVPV

14-3-3 protein gamma = 14-3-3 protein gamma (Homo sapiens, UniProt P61981); test: modulators of 14-3-3 gamma client binding – dose response (AID 711); type: functional
Sequence of 14-3-3 protein gamma (P61981 whole entry): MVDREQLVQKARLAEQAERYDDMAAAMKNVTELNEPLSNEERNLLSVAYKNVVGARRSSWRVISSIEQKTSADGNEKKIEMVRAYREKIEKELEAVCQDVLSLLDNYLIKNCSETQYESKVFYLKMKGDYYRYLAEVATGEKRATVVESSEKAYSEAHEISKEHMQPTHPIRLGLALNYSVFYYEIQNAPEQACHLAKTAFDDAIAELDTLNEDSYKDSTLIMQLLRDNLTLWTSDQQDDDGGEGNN

[8] = target: Luciferin 4-monooxygenase (Photinus pyralis, UniProt P08659); test: inhibition of purified Photinus pyralis luciferase – biochemical, luminescence, dose response (AID 1891)
Sequence of Luciferin 4-monooxygenase (P08659 whole entry): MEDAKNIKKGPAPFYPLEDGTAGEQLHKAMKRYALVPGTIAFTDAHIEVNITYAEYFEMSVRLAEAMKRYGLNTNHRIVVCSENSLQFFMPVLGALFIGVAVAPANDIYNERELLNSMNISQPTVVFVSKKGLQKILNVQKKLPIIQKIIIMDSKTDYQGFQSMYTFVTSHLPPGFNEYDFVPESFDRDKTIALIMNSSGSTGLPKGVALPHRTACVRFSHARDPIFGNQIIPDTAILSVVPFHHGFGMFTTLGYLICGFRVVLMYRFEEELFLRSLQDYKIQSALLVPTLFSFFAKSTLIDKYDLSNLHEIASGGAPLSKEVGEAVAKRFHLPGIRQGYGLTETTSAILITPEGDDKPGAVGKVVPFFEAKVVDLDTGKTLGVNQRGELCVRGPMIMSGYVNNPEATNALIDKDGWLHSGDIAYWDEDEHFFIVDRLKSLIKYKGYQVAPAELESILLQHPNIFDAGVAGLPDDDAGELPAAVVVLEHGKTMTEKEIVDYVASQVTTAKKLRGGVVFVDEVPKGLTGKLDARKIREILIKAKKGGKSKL

[9] = Luminescence Cell-Based Dose Confirmation HTS to Identify Inhibitors of Platelet Dense Granule Release. [Related pubchem assays: 1663 (Primary HTS), 1678 (Summary of Project)]; type: functional
[10] = microbe, parasite or virus in culture; type: functional; details: Mycobacterium tuberculosis
[11] = THP-1 cell cytotoxicity, dose response, cytotoxicity control for non-replicating M. tuberculosis project (AID 489025); type: functional
[12] = Vero E6 cell cytotoxicity, dose response, cytotoxicity control for non-replicating M. tuberculosis project, secondary assay (AID 492998); type: functional, VeroE6; details: Vero C1008
cells = type: functional
[13] = bead-based luminescence quenchers, dual-tagged ARNT – biochemical, AlphaScreen, cherry-pick, artefact control for ARNT-TACC3 interaction inhibitor project, dose response (AID 651705); type: functional;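 note: AlphaScreen bead proximity signal that flags compounds interfering with the detection technology; potency reflects signal decrease which marks the compound as an assay artifact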
[14] = inhibition of ARNT PAS-B/TACC3 complex formation – biochemical, AlphaScreen, cherry-picked samples, confirmation (AID 651703); type: functional, Homo sapiens;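 note: His-tagged ARNT PAS-B domain paired with GST-TACC3 E629A dimer coactivator fragment; potency of inhibitors that break up the complex and lower AlphaScreen signal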
[15] = IC50 of Artemis nuclease activity blockers – biochemical, fluorescence intensity, dose response (AID 720701); type: functional;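 note: Artemis endonuclease enzyme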
[16] = Luminescent dose response cell-based high throughput screening assay for inhibitors of the Janus kinase 2 mutant JAK2V617F. [Related pubchem assays: 1446 (Primary screen.), 1521 (Confirmation assay.), 1486 (Counter screen.)]; type: functional
[17] = test system: Streptococcus sp. 'group A'; test: Streptococcus pyogenes SK(-)GAS viability under kanamycin – luminescence, BacTiterGlo, confirmation, counter-screen for streptokinase expression inhibitor project, dose response (AID 1900); type: functional, organism-based
[18] = target: T1, Heat shock factor protein 1 (Mus musculus, UniProt P38532); test: decrease of HSF1-responsive luciferase luminescence – cell-based, NIH3T3, dose retest, confirmation (AID 2382); type: functional;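 note: NIH3T3 fibroblasts with HSF1-driven luciferase reporter stressed by proteasome inhibitor MG132; luminescence from HSF1-driven luciferase expression after 8 hours of MG132 stress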
T1 sequence (P38532 whole entry): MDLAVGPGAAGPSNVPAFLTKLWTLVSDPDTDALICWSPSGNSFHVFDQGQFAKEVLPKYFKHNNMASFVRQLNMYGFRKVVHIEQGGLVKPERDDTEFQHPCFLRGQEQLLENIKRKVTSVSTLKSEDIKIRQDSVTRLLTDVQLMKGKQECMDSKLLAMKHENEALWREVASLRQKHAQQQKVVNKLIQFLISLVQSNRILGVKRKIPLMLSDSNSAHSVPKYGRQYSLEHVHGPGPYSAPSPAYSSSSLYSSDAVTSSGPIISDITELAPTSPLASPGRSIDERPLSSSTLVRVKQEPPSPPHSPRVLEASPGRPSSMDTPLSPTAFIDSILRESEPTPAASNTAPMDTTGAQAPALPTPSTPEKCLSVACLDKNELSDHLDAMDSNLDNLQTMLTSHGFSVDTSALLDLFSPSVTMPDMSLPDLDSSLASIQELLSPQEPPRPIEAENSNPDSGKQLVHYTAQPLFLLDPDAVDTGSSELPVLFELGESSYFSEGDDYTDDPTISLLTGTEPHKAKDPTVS

Streptokinase A = target: T2, Streptokinase A (Streptococcus pyogenes serotype M1, UniProt P10520); test: viability-normalized secreted streptokinase activity reduction – plasminogen activation absorbance, OD405, dose response (AID 1914); type: functional, Streptococcus pyogenes M1 GAS;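 note: secreted streptokinase activity via plasminogen activation per viability signal from cell pellet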
T2 sequence (P10520 whole entry): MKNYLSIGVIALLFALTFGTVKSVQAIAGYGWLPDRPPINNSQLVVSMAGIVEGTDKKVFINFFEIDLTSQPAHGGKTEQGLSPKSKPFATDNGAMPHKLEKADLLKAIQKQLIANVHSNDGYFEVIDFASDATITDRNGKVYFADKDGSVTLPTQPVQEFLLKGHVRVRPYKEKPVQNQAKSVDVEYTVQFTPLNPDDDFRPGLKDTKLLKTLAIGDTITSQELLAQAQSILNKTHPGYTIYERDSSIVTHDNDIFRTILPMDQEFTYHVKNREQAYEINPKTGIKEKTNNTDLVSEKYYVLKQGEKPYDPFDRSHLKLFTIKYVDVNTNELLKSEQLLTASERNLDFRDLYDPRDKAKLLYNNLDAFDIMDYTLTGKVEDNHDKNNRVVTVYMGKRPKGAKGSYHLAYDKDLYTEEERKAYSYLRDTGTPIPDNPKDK

Streptococcus = test: GAS UMAA2166 growth inhibition – luminescence, BacTiterGlo, counter-screen for streptokinase expression inhibitor project, dose response (AID 1915); type: functional, organism-based;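 note: potency for reduction of bacterial viability or growth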
[19] = target: T3, Replicative DNA helicase DnaB (Mycobacterium tuberculosis, UniProt P9WMR3); test: DnaB intein splicing inhibitors, dose response, biochemical, cell-free fluorescence (AID 449749); type: functional
T3 sequence (P9WMR3 whole entry): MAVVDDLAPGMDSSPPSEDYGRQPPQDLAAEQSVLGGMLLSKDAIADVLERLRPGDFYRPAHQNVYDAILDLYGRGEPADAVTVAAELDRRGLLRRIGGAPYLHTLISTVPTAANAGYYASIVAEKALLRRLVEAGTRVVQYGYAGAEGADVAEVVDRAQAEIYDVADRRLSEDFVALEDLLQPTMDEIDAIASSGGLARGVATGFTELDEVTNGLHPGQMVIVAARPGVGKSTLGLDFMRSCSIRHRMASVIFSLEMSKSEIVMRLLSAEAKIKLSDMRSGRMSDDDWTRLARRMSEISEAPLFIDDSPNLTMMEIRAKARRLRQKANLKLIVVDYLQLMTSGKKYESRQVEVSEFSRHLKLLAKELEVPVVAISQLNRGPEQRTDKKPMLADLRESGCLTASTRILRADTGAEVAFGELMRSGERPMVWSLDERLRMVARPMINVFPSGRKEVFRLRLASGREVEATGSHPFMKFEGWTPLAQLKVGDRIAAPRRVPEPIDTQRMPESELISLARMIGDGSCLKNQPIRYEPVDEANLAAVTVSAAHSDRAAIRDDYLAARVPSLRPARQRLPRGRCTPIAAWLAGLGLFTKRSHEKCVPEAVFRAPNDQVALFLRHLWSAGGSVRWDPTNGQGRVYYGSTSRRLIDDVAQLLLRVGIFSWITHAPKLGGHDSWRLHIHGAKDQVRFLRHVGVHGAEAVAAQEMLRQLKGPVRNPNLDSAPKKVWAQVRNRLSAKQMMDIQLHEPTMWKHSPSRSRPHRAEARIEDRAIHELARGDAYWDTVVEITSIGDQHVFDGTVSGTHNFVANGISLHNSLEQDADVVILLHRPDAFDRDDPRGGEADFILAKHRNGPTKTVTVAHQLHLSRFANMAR

Protein RecA = target: T4, Protein RecA (Mycobacterium tuberculosis, UniProt P9WHJ3); test: Fluorescence Cell-Free Homogeneous Dose Retest to Identify Inhibitors of RecA-Intein Splicing Activity. [Related pubchem assays (depositor defined):AID2097, AID2223, AID489010, AID492950]; type: functional
T4 sequence (P9WHJ3 whole entry): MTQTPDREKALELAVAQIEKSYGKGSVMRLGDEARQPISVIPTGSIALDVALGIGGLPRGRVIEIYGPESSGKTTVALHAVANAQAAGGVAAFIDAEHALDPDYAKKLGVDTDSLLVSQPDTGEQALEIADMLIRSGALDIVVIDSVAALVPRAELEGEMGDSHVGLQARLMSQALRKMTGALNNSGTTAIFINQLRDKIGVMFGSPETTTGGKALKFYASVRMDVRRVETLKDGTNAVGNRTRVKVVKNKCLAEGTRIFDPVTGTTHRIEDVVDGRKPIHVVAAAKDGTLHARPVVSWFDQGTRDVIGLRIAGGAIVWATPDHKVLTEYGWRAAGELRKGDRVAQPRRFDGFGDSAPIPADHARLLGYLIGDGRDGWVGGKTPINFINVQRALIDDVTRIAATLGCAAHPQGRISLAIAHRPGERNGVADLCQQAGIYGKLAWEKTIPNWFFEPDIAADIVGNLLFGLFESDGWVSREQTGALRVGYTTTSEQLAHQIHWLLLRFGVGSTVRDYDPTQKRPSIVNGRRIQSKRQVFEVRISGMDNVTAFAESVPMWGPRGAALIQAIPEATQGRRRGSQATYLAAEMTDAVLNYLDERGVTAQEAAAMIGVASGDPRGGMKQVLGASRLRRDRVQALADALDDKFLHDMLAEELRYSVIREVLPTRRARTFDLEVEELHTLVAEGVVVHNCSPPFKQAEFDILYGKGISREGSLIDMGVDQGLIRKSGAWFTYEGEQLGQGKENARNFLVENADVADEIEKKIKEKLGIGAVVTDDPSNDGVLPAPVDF

Sequence of Mannose-6-phosphate isomerase (P34949 whole entry): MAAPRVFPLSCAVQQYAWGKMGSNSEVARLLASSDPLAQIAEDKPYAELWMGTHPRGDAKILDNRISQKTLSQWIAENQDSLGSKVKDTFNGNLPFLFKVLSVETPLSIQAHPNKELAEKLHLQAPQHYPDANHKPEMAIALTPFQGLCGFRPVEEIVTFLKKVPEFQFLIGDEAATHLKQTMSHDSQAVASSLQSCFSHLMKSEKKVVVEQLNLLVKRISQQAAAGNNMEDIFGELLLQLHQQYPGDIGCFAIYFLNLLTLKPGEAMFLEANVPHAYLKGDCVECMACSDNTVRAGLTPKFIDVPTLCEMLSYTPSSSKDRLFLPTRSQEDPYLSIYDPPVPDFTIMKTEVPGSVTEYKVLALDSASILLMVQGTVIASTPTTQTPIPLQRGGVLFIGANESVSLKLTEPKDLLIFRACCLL

## FC(F)Oc1cccc(NC(=S)N2CCN(c3ccccn3)CC2)c1
[1]
  IC50: > 50 µM (not active)

## O=C(NCC1CCCN(Cc2cccc(C(F)(F)F)c2)C1)c1ccc(F)cc1 (stereo not given)
[2]
  EC50: 0.112 µM (active)
[3]
  EC50: > 195 µM (not active)
[4]
  EC50: > 60 µM (inconclusive)

## CC(C)c1cc(C(=O)O)c2cnn(C(C)C)c2n1
[5]
  IC50: > 109 µM (inactive)
[6]
  IC50: > 83.2 µM (inactive)

## CC(C)c1onc(C(=O)N2CCN(Cc3ccccc3)CC2)c1[N+](=O)[O-]
[7]
  IC50: 1.5 µM (active)

## Cc1cc(C)n(CNc2nc(C(F)(F)F)cs2)n1
Ephrin type-A receptor 4
  IC50: > 100 µM (not active)

## CN1C(=S)SC(N(O)C(=O)Nc2ccccc2)C1(C)C (stereo not given)
14-3-3 protein gamma
  IC50: > 50 µM (not active)

## c1ccc(-c2nc3c(ccc4ccccc43)[nH]2)nc1
[8]
  EC50: 4.22 µM (active)
[9]
  EC50: 27.1 µM (active)
[10]
  CC50: > 40 µM (active)
[11]
  CC50: 38.9 µM (active)
[12]
  CC50: > 20 µM (active)
cells
  IC50: 18.9 µM (active)
[13]
  AC50: 119 µM (active)
[14]
  AC50: 79 µM (active)
[15]
  IC50: 14.4 µM (active)

## Cc1cccc(CS(=O)(=O)c2nnc([C@H](Cc3ccccc3)NC(=O)OC(C)(C)C)o2)c1
[16]
  IC50: 0.87 µM (active)
[17]
  EC50: 8.25 µM (active)
[18]
  EC50: 2.19 µM (active)
Streptokinase A
  EC50: 1.5 µM (active)
Streptococcus
  EC50: 10.2 µM (active)
[19]
  AC50: 2.68 µM (active)
Protein RecA
  EC50: 5.42 µM (active)
